Results on 19 compounds are retold here after ChEMBL document CHEMBL1201862, “PubChem BioAssay data set” (2004).

The source made the active and inactive calls.

Experiment [1] is described as follows: cells.
A further experiment concerns the target T1, Mucolipin-3 (Homo sapiens, UniProt Q8TDD5).
T1 sequence (Q8TDD5 whole entry): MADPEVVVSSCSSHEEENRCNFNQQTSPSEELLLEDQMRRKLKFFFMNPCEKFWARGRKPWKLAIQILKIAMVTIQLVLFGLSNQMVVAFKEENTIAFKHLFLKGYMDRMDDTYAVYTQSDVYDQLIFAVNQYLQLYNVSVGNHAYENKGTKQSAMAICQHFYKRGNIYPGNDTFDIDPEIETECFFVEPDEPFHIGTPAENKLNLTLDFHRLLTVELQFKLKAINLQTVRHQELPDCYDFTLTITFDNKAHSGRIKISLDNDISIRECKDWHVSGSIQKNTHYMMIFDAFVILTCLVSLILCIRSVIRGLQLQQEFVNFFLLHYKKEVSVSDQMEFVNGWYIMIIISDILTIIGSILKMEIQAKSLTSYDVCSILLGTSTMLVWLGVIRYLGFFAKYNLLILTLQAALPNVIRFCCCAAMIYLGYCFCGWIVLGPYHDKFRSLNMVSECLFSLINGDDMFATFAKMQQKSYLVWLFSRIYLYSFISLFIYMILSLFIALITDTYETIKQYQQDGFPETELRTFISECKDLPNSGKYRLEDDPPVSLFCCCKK
Description: Dose response cell-based high-throughput screening assay for agonists of the transient receptor potential channel ML3 (TRPML3). [Related pubchem assays: 1526, 1424, 1448 ]. The format is functional.

The target in the next experiment is Ion channel NompC (Danio rerio, UniProt Q7T1G6). Description: Fluorescence counterscreen assay for TRPML3 agonists: dose response cell-based high-throughput screening assay to identify agonists of the transient receptor potential channel N1 (TRPN1). [Related pubchem assays: 1526, 1424, 1448 ]. The format is functional.
Chain of Ion channel NompC (Q7T1G6 whole entry): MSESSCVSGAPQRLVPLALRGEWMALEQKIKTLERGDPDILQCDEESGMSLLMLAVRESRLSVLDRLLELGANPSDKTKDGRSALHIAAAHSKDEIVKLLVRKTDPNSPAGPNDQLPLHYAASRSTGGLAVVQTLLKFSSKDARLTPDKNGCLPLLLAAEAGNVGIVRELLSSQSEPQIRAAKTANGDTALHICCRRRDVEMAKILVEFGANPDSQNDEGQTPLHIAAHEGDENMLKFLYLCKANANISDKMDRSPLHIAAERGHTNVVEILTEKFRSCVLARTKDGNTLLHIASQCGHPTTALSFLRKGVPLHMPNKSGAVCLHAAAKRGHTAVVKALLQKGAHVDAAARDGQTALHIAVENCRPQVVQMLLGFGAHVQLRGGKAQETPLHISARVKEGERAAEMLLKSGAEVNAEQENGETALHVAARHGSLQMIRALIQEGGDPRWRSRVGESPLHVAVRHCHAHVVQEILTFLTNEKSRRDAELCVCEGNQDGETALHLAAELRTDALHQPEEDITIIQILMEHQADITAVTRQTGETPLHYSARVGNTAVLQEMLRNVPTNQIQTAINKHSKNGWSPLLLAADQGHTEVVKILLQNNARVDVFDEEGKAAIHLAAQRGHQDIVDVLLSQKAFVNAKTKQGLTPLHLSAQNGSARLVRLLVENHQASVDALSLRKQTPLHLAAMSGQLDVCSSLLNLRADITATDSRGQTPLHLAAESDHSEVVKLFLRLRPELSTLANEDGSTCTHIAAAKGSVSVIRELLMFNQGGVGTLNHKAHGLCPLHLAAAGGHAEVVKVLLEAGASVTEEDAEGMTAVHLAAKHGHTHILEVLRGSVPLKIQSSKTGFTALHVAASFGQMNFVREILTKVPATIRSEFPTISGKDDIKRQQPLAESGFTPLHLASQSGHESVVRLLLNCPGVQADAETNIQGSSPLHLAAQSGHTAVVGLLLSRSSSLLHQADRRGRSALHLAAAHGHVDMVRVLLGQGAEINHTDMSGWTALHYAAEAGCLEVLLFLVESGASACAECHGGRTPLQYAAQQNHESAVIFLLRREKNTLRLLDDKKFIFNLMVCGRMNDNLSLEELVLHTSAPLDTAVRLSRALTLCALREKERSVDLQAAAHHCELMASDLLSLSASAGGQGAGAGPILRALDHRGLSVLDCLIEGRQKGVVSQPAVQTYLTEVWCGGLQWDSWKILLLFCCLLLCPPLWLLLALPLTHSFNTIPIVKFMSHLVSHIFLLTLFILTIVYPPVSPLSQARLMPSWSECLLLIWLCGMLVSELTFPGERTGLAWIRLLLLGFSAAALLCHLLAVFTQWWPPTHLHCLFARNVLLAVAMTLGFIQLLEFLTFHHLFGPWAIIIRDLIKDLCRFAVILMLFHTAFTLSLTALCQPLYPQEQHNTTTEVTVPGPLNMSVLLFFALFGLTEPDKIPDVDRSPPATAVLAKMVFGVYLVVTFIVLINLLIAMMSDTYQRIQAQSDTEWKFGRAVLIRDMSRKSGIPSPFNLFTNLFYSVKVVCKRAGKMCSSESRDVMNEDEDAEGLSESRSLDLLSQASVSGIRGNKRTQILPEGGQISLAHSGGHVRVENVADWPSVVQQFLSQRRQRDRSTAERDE
Experiment [2] addresses NAD-dependent protein deacylase sirtuin-5, mitochondrial (Homo sapiens, UniProt Q9NXA8). Description: sirtuin-5 deacylation blockers, concentration series – biochemical, fluorescence imaging, cherry-pick, set 5, dose response (AID 720591).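 Note: desuccinylation of succinyl peptide AMC substrate read as fluorescence after trypsin release; potency of inhibitors that lower fluorescence and may act on trypsin instead.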
Experiment [3] concerns the target FAD-linked sulfhydryl oxidase ALR (Homo sapiens, UniProt P55789). Description: ALR-catalysed DTT oxidation blockers – biochemical, H2O2 detection, luminescence, cherry-pick, dose response (AID 493248).
Experiment [4] addresses T2, Trace amine-associated receptor 1 (Homo sapiens, UniProt Q96RJ0).
T2 sequence (Q96RJ0 whole entry): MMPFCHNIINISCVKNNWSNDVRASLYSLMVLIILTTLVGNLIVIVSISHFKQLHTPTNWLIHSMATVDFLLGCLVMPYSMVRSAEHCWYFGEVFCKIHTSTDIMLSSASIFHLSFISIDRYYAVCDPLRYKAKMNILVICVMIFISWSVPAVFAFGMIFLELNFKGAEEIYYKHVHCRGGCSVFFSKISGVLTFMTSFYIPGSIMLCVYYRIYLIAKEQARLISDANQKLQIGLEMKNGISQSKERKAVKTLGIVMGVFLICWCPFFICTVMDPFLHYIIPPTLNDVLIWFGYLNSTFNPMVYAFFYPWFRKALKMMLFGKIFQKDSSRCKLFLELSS
Description: Fluorescence-based cell-based high throughput dose response assay to identify agonists of the human trace amine associated receptor 1 (TAAR1). The format is functional.

Experiment [5] deals with T2, Trace amine-associated receptor 1. Description: Counterscreen for agonists of the human trace amine associated receptor 1 (hTAAR1): Fluorescence-based cell-based high throughput dose response assay to identify hTAAR1 agonist that also desensitize TAAR1 receptor response. It is filed as functional.
Another experiment deals with T3, Leucine aminopeptidase (Plasmodium falciparum 3D7, UniProt Q8IL11).
T3 sequence (Q8IL11 whole entry): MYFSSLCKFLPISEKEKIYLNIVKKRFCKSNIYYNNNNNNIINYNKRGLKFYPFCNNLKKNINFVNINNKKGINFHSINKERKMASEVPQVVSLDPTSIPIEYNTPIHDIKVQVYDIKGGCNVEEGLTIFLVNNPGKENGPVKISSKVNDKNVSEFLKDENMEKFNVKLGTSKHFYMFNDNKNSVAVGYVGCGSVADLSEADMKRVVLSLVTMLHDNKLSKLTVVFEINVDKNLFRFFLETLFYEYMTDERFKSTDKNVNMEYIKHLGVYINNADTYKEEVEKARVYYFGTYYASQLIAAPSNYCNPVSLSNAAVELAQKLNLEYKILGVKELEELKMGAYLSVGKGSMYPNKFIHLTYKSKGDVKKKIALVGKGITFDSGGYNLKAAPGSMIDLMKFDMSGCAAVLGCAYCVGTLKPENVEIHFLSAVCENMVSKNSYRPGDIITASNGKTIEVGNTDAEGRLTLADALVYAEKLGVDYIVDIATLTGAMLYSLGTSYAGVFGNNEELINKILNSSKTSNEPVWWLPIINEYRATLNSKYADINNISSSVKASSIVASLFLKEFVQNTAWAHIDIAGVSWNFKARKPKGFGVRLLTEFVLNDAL
Description: P. falciparum M17LAP inhibitors, primary screen, biochemical, fluorogenic H-Leu-NHMec substrate, 1536-well (AID 1619). The format is functional.

For experiment [6], the target named is T4, DNA repair protein RAD52 homolog (Homo sapiens, UniProt P43351).
T4 sequence (P43351 whole entry): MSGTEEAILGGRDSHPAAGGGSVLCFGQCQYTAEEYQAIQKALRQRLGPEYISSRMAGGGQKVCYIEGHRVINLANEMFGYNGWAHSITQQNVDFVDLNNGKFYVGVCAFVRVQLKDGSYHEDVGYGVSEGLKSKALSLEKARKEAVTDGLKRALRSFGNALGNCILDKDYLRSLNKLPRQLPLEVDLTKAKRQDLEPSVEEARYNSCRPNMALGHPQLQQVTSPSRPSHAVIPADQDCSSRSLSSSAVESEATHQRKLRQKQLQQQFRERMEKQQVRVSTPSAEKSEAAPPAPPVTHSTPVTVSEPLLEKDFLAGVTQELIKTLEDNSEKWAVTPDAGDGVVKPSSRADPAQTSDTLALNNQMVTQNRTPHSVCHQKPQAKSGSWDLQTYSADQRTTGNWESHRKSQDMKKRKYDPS
It is filed as functional, biochemical.

Experiment [7] deals with T5, Calpain-2 catalytic subunit (Sus scrofa, UniProt P43367).
T5 sequence (P43367 whole entry): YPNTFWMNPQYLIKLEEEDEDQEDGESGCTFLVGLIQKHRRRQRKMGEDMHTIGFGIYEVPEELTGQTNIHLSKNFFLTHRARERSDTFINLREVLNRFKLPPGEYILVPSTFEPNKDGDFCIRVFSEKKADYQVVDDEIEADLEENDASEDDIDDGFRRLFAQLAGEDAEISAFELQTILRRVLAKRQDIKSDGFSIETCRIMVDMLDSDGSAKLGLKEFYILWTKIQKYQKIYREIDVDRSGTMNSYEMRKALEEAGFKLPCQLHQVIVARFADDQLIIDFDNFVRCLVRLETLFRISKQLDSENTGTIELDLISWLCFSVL
Description: m-calpain protease blockers, concentration series – biochemical, fluorogenic peptide substrate, dose response (AID 1420). The format is functional.

Experiment [8] can be described thus: viability loss in THP-1 monocytes – THP-1 cells, cytotoxicity control for Vif-APOBEC3G degradation inhibitor project, dose response (AID 1117359). The format is functional. To be noted: THP-1.
The nature of experiment [9]: M. tuberculosis H37Rv growth inhibitors, H37Rv strain (AID 1626). It is filed as functional.
The target of experiment [10] is T6, Mannose-6-phosphate isomerase (Homo sapiens, UniProt P34949).
T6 sequence (P34949 whole entry): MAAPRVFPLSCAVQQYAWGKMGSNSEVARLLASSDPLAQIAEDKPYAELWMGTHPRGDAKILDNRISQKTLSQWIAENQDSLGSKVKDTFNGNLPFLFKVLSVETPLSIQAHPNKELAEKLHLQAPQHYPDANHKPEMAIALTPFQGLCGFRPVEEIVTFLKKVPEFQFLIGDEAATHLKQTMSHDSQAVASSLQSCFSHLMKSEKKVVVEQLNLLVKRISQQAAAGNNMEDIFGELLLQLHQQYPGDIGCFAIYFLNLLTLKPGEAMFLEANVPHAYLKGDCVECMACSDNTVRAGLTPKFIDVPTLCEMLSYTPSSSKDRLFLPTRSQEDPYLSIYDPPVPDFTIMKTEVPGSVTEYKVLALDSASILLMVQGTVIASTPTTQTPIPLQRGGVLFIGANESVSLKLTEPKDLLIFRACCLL
As to the kind of experiment: MPI inhibition at elevated mannose 6-phosphate – biochemical, fluorescence intensity, high mannose 6-phosphate, primary screen (AID 1220).

A short description of experiment [11]: Luminescence Cell-Based Dose Confirmation HTS to Identify Activators of 5'UTR Stem-Loop Driven Alpha-Synuclein mRNA Translation in H4 Neuroglioblastoma Cells. [Related pubchem assays: 1829 (Project Summary), 1814 (Primary HTS)]. It is filed as functional.
Experiment [12] is described as follows: Luminescence Cell-Based Dose Response HTS to Identify Activators of Luciferase Translation or Activity in H4 […] Cells. [Related pubchem assays: 1829 (Project Summary), 1814 (Primary HTS)]. The format is functional.
In another experiment the test system is H4. Description: Luminescence Cell-Based Dose Response HTS to Identify Activators of 5'UTR Stem-Loop Driven Prion Protein mRNA Translation in H4 Neuroglioblastoma Cells. [Related pubchem assays: 1829 (Project Summary), 1814 (Primary HTS)]. It is filed as functional. The conditions noted are these: Homo sapiens.
Experiment [13] can be described thus: cells. It is filed as functional, cell-based.
A short description of experiment [14]: cells. The format is functional, cell-based. The source holds these as a separate data set.
A short description of experiment [15]: viability of uninfected HEp-2 cells – cell-based, HTS, cytotoxicity control for RSV inhibitor project, dose response (AID 2410). The conditions noted are these: human respiratory syncytial virus. The format is functional.

Chain of NAD-dependent protein deacylase sirtuin-5, mitochondrial (Q9NXA8 whole entry): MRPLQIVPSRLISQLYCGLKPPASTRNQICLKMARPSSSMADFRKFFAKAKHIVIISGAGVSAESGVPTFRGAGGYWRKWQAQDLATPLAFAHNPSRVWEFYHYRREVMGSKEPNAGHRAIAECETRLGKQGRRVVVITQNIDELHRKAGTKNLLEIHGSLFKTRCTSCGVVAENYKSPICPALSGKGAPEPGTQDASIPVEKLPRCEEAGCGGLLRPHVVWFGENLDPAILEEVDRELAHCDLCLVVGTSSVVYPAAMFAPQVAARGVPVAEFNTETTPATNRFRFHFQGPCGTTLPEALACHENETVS
Chain of FAD-linked sulfhydryl oxidase ALR (P55789 whole entry): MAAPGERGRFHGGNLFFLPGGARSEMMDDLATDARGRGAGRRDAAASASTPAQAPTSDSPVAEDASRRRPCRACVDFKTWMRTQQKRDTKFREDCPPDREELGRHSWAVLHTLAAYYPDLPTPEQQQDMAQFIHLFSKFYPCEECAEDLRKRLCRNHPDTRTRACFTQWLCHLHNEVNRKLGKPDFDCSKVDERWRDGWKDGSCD

Turning to `COC(=O)c1ccc2[nH]ccc2c1`, in “cells [1]”, the IC50 is 42.7 µM (active).
Regarding `Cc1cc(C)c(S(=O)(=O)Nc2ccccc2-c2ccccc2)c(C)c1`, the concentration giving a half-maximal response (EC50) at Mucolipin-3 is 5.34 µM (active); on Ion channel NompC it was > 29.9 µM (not active).
On to `CN(C)C(CNC(=O)CCNC(=O)c1ccc(Cl)cc1)c1ccco1` (stereo not given), for which, in experiment [2], the AC50 was > 30 µM (inactive).
Take `Cc1ccc(S(=O)(=O)NC2CCCCC2)c2nsnc12`: the concentration for a half-maximal effect (EC50) on Mucolipin-3 was 8.34 µM (active); at Ion channel NompC it was > 29.9 µM (not active).
`COC(=O)[C@H](Cc1c[nH]c2ccccc12)NC(=O)NCc1ccc(OC)c(OC)c1`: the AC50 in experiment [2] is > 30 µM (inactive).
Take `Cn1c(=O)c2[nH]c(Nc3ccccc3)nc2n(C)c1=O`: the AC50 in [3] is 0.398 µM (active). Moreover, the EC50 in experiment [4] is 5.67 µM (active). Also, in experiment [5], the half-maximal inhibitory concentration (IC50) was 9.39 µM (active).
Consider `CC1=CC(C)(C)N(C(=O)CN2C(=O)c3ccccc3C2=O)c2ccccc21`, for which the EC50 at Mucolipin-3 was 1.45 µM (active); on Ion channel NompC, > 29.9 µM (not active).
In the case of `CC1CCN(CC(=O)Nc2ccc(N3CCCCCC3)cc2)CC1`, at Leucine aminopeptidase, the IC50 is 13 µM (active). Further, the concentration at half-maximal activity (AC50) is 0.448 µM (active) in [3] and 18 µM (active) in experiment [6].
In the case of `CCOc1cc(CNc2ccc(O)cc2)cc(Br)c1OCc1ccccc1F`, the IC50 in experiment [7] was 9.81 µM (not active). For the same compound, in experiment [8], the CC50 was 27.8 µM (active).
As for `O=C(COC(=O)c1ccccc1Br)Nc1ccccc1F`, the IC50 in [9] was > 100 µM (active).
As to `Oc1nc(Cc2ccc(F)cc2)nc2scc(-c3ccc(F)cc3)c12`, the concentration at half-maximal activity (AC50) in experiment [2] was 18 µM (active).
On to `Cc1c(C(=O)NC(C)C)oc2c1-c1n[nH]cc1CC2`, for which the IC50 in experiment [10] is > 50 µM (not active).
Consider `COc1ccc(OC(=O)NCCc2ccccc2)cc1`, for which the EC50 in experiment [11] is 29 µM (active); in experiment [12], 49 µM (active); in the experiment on H4, 16.1 µM (active); in experiment [4] it was 0.535 µM (active); in “cells [14]”, > 29.9 µM (inactive). In addition, the IC50 (in the experiment “cells [13]”; in experiment [5]) was > 29.9 µM (inactive) throughout.
With `Cn1cccc1/C=C1/C(=O)NC(=O)N(Cc2ccccc2)C1=O`, the CC50 in experiment [8] was > 40 µM (active).
Regarding `COc1ccccc1CCNC(=O)C(=O)NCC1OCCN1S(=O)(=O)c1ccc(C)cc1` (stereo not given), the values for the IC50 (in the experiment “cells [13]”; in [5]) were > 29.9 µM (inactive) and 7.91 µM (active), respectively. Besides, the concentration for a half-maximal effect (EC50) in [4] is 2.51 µM (active); in “cells [14]”, > 29.9 µM (inactive).
Take `C/C(N)=C(/C#N)C(=O)COC(=O)c1ccccc1Cc1ccccc1`: in experiment [15], the cytotoxic concentration (CC50) is 32.2 µM (active). Also, the half-inhibitory concentration (IC50) in “cells [1]” was 45 µM (active).
As to `O=C(/C=C/C(=O)N1CCc2ccccc2C1)N1CCc2ccccc2C1`, the IC50 in “cells [13]” is > 29.9 µM (inactive); in experiment [5], 4.67 µM (active). The EC50 is 1.14 µM (active) in experiment [4] and > 29.9 µM (inactive) in “cells [14]”.
Regarding `O/N=C/c1ccc(-c2cc(Cl)ccc2Cl)o1`, the 50% inhibitory concentration (IC50) in experiment [9] was > 100 µM (active).
As for `Nc1nnc(SCc2ccc(F)cc2)s1`, in experiment [9], the IC50 is > 100 µM (active).
